From a melting point compilation (Tetko et al.; mined from patent text by program, amines drawn as free bases though some values may be those of a salt)
Residues, ends and D or L forms follow the SMILES beside them.

| Structure (SMILES) | melting point |
| --- | --- |
| Cc1cc(C#N)c(Cl)nc1C | 83 to 87 °C |
| FCc1nc(C#CCCc2cn3cc(F)ccc3n2)cs1 | 82 to 84 °C |
| N#CCCCOc1ccc(C(=O)O)cc1 | 193 to 194 °C |
| CN[C@H](Cc1ccc2ccccc2c1)C(=O)N1CCN(S(C)(=O)=O)C[C@H]1Cc1ccccc1 | 165 to 168 °C |
| CC(C)C(NC(=O)c1ccc(C(=O)NCC(=O)OCc2ccccc2)cc1)C(=O)N1CCCC1C(=O)NC(C(=O)C(F)(F)F)C(C)C (mixture of isomers) | 77 to 78 °C |
| CCCCCCCCn1c(C)c(C(=O)c2ccccc2C(=O)O)c2ccccc21 | 121 to 123 °C |
| Cc1csc2c1S(=O)(=O)N=C(NC(C)C)N2 | 152 to 154 °C |
| O=C(c1ccc(Cl)cc1)c1ccc2nccc(C(=O)O)c2c1 | > 260 °C |
| COC1(C)C(=O)C(c2ccccc2)=C1c1ccc(S(C)(=O)=O)cc1 (centres undefined) | 145 °C |
| CC1(C)OC(c2ccc(S(C)(=O)=O)cc2)=C(c2ccc(F)c(Cl)c2)C1=O | 162 to 164 °C |
| CC(=O)OC1C=CC2(C)C(=CCC3C2CCC2(C)C(C(C)CCCC(C)C)CCC32)C1 (centres undefined) | 73 to 75 °C |
| CC(=O)SCC1CN2CCCC(C(=O)OC(C)(C)C)N2C1=O (centres undefined) | 92 to 93 °C |
| CCC(=O)NC[C@H]1CN(c2ccc3c(c2)C[C@@H](C)N3C=O)C(=O)O1 | 118 to 119 °C |
| CCOC(=O)C=CCCc1cn(C(c2ccccc2)(c2ccccc2)c2ccccc2)cn1 | 86 to 88 °C |
| O=S(=O)(Nc1ccc(Cl)cc1C1=NN(c2ccccc2)CC1)C(F)(F)F | 138 to 163 °C |
| CN1CCC(Cc2ccc(Cl)nc2)C1=C[N+](=O)[O-] (centres undefined) | 141 to 142 °C |
| CC1CCc2cc(C3=NNC(=O)C4CC34)ccc2NC1=O (centres undefined) | 305 to 307 °C |
| Nc1nc(N2CCC2)c2ncn(C3CC(F)C(CO)O3)c2n1 (centres undefined) | 127 to 129 °C |
| O=S(O)c1ccc2c(c1)CCCC2 | 82 to 85 °C |
| O=S(=O)(NCCc1ccccc1)c1cccc(-c2cc(-c3nc(-c4ccc(C(F)(F)F)cc4)cc(C(F)(F)F)n3)ccn2)c1 | 201 °C |
| CCOC(=O)C(OC(C)=O)c1ccc(-c2ccc(-c3ccccc3)cc2)o1 (centres undefined) | 136 to 140 °C |

| Structure (SMILES) | melting point |
| --- | --- |
| C[C@H](N)C(=O)N1CCC[C@H]1C(=O)O (H-Ala-Pro-OH) | 106 to 132 °C |
| CC1(C)OCc2cc(Cl)cc(C(C)(O)c3cn(C(c4ccccc4)(c4ccccc4)c4ccccc4)cn3)c2O1 (centres undefined) | 182 to 184 °C |
| O=c1ccc(-c2ccc(-n3cnc4c3CCCC4)cc2)n[nH]1 | 266 to 267 °C |
| CN1CC(COC2c3ccccc3CCn3cc(I)nc32)C1 (centres undefined) | 100 °C |
| COc1ccc(C2=CC(N3CCN(Cc4ccccc4)CC3)=NC23C=CC(=O)C=C3)cc1 | 190 °C |
| O=C(NC1CCN(CCOC(=O)c2ccccc2)CC1)c1ccccc1 | 139 to 140 °C |
| N#CCCN(C(N)=O)C1CCCCC1 | 110 to 112 °C |
| N#Cc1cnn2c1NCC=C2c1cccc(C(F)(F)F)c1 | 175 to 177 °C |
| O=C1Nc2ccc(-c3cccnc3)cc2C12CCCCC2 | 232 to 234 °C |
| O=C(NCCO)/C(=C/c1ccc(C(F)(F)F)c(F)c1)NC(=O)c1ccc(OCCC(F)(F)F)cc1 | 185 to 186 °C |
| CCC(=O)N1N=C(c2ccc([N+](=O)[O-])cc2)c2cc3c(cc2CC1C)OCO3 (centres undefined) | 189 to 190 °C |
| CCOC(=O)c1[nH]c2cc(Cl)cc(Cl)c2c1N(Cc1ccccc1)C(=O)c1ccccc1 | 174 to 175 °C |
| Nc1cccc(/C=C/c2nc(C3CCCC3)cs2)c1 | 59 to 61 °C |
| CN(C)C(=O)Oc1ccc(C=O)c(O)c1 | 58 to 60 °C |
| CC1CC(=O)NN=C1c1ccc(N2CCOCC2)c([N+](=O)[O-])c1 (centres undefined) | 223 to 225 °C |
| CC1(CN2CCC(=O)CC2)Cn2cc([N+](=O)[O-])nc2O1 (centres undefined) | 124 to 126 °C |
| CCCCCCCCCCC1CNC(=O)O1 (centres undefined) | 86 to 87 °C |
| Cc1cc(C)nc(NC(=O)NS(=O)(=O)c2ccccc2C2(O)CCC2)n1 | 148 to 150 °C |
| O=C(O)C=CC1(Cc2ccccc2)C=CC=C(c2ccccc2)C1 (centres undefined) | 165 to 174 °C |
| O=C(CBr)c1cccc2nnsc12 | 155 to 157 °C |

The remaining lines, values ahead:

| melting point | Structure (SMILES) |
| --- | --- |
| 209 to 210 °C | Cc1ccc(OC(C)C)c(-c2cc(=O)c3cc(C(=O)O)ccc3o2)c1 |
| > 200 °C | CC(=O)OCC1C(O)C2OC(C)(C)OC2C2NC(=O)c3cc4c(cc3C12)OCO4 (centres undefined) |
| 58 to 63 °C | CONCc1nc2cnc3ccccc3c2n1CC1CCOCC1 |
| 127 to 130 °C | Cc1ccccc1-c1nc(COc2cccc3cc(NS(=O)(=O)C(F)(F)F)ccc23)co1 |
| 210 to 212 °C | COc1cc2nc(CN(C)C)[nH]c(=O)c2cc1OC |
| 123 to 130 °C | O=c1cc(-c2ccccc2)oc2cc(OCC3CO3)ccc12 (centres undefined) |
| 235 °C | COc1cc2c(=O)n(CCOCCO)c3c4cc5c(cc4ncc3c2cc1OC)OCO5 |
| 245 to 248 °C | CCCCS(=O)(=O)NC(=O)/C=C/c1c(C)nn(C)c1-n1ccc2cc(Cl)cnc21 |
| 128 to 129 °C | COc1cc(OC)cc(N2CCN(C(=S)Nc3cc(C)c(C)cc3OC)CC2)c1 |
| 150 to 152 °C | COc1cc(-c2nc(NC(=O)c3c(C)c4cc(C)ccc4n3CC(=O)O)sc2CCC2CCCCC2)c(OC)cc1C |
| 158 °C | COc1ccc(OC)c(C(=O)c2oc3ccccc3c2O)c1 |
| 139 °C | CCN(CC)C(=O)N1CCc2cc(S(=O)(=O)N3C(=O)C(NCCC4CCN(C(=O)OC(C)(C)C)CC4)(c4ccccc4Cl)c4cc(Cl)ccc43)ccc21 (centres undefined) |
| 202 to 204 °C | COc1cc2c(cc1OCC(=O)O)C1Cc3c(Cl)cc(OC)c(OCC(=O)O)c3CN1CC2 (centres undefined) |
| 186 °C | COc1cc(Nc2nccc(Nc3ccccc3)n2)cc(OC)c1OC |
| 246 °C | CCOC(=O)c1cc(Br)cc2c(=O)cc(-c3cccc(OCc4ncc5ccccc5n4)c3)oc12 |
| 194 to 197 °C | Brc1ccc2c(c1Cc1cccc3cnccc13)OCO2 |
| > 250 °C | CC(=O)Nc1cccc(/C=C/C(=O)N2CC(CCl)c3c2cc(N)c2ccccc32)c1 (centres undefined) |
| 136 to 137 °C | CCn1cnc2c(Nc3cccc(C(F)(F)F)c3)nc(NCCCO)nc21 |
| 225 to 227 °C | Cn1c(=O)c2c(nc3n2CC(O)CN3Cc2ccccc2)n(C)c1=O (centres undefined) |
| 132 to 133 °C | COc1ccc(-c2nc(C)cc(OCCN3CCN(C(c4ccccc4)c4ccccc4)CC3)n2)cc1 |
| > 280 °C | CCn1c(=O)c2[nH]c(/C=C/c3ccc(C)cc3)nc2n(CC)c1=O |
| 206 to 207 °C | CNC(=O)Nc1cc(OC)c(-c2ccc(C[C@H](NC(=O)c3c(Cl)cccc3Cl)C(=O)O)cc2)c(OC)c1 |
| 122 to 125 °C | CCCCC(=O)N(Cc1ccc(OC)cc1)c1cc(F)cc(-c2nnn[nH]2)c1 |
| 150 to 151 °C | COC(=O)c1cccc(-c2nnc(-c3ccc(N4CCOCC4)cc3)o2)c1 |
| 230 to 240 °C | COc1cc2c(cc1OCc1ccccc1)CC(C(=O)O)NC2 (racemic) |
| 221 to 222 °C | CN(c1ccc(Br)cc1)c1nc(=O)c2cccnc2s1 |
| 48 to 50 °C | COc1ccccc1-n1cnc2cc(N)ccc21 |
| 159 to 160 °C | Cc1nc2c(OCc3ccccc3)cc(C(=O)N(C)C)cc2n1C |
